Data on four compounds can be found in patent publication US11318107B2, “Pharmaceutical active-containing film delivery device for oral transmucosal administration” (Avior, Inc., priority 2019, dated 2022).

A short description of series [1]: Pharmacokinetic study of nalmefene buccal films and nalmefene IV in beagle dogs (plasma, LC/MS, noncompartmental analysis). The conditions noted are these: majority of concentrations, after buccal film or IV nalmefene, lower limit of quantitation 0.1 ng/mL.
The nature of a further series: in vivo. The following applies: both, beagle, dog, plasma, iv, 4 mg/animal.
The nature of series [2]: Solubility evaluation of nalmefene in solvent systems. The class given is physicochemical. The method, then:
In addition, the solubility of nalmefene in varying concentrations was evaluated using different combinations of solvent systems. The solvent systems included combinations of polar solvents with different surface active agents. The solvent systems provided different volatilization rates. […] Exemplary surface active agents included: Tween 20, Tween 80, Gelucire® 34/44, Kolliphor® HS 15, Solutol® NF, Labrafil® M2125 CS and Labrafil® M1944 CS.

For series [3] the following is noted: cited from earlier work.
Series [4] is described as follows: Solubility of nalmefene HCl in polar solvents at 100 mg/mL. The class given is physicochemical. The conditions noted are these: test concentration 100 mg/mL. From the text:
Ethanol, propylene glycol, glycerol, methanol, and water were considered.

Counter-ions that a name gives are not always drawn.

For the compound `C=C1CC[C@@]2(O)[C@H]3Cc4ccc(O)c5c4[C@@]2(CCN3)[C@H]1O5` [nornalmefene], in series [1], the “Nornalmefene (metabolite) plasma concentrations” value is recorded as “below the limit of quantitation”.
On to `C=C1CC[C@@]2(O)[C@H]3Cc4ccc(O)c5c4[C@@]2(CCN3CC2CC2)[C@H]1O5` [nalmefene, 6-methylene-6-deoxy-N-cyclopropylmethyl-14 hydroxydihydronormorphine], for which the Vd (as a rule, the apparent volume that relates the amount in the body to the concentration in plasma or blood) in the series “in vivo” came to 2.77 L/kg. For the same compound, the clearance (usually a measure of how efficiently the substance is removed, as volume per time) in “in vivo” is 46.2 mL/min/kg. For the same compound, the half-life (commonly the time needed for the level to fall by half in the phase considered) in “in vivo” was 1.34 h. In addition, the Solubility observation entry in series [2] (Ethanol:Water 75:25, nalmefene 200 mg/mL) was “Completely Soluble,”; in series [2] (Ethanol:Water:Gelucire 34/14 75:20:5, nalmefene 200 mg/mL), “Completely Soluble,”; in series [2] (Ethanol:Water:Glycerine 70:20:10, nalmefene 300 mg/mL), “Completely Soluble,”; in series [2] (Ethanol:Water:Labrafil M1944 CS 80:17.5:2.5, nalmefene 200 mg/mL) it was “Completely Soluble,”; in series [2] (Ethanol:Water:Labrafil M2125 OS 80:17.5:2.5, nalmefene 200 mg/mL), “Completely Soluble,”; in series [2] (Ethanol:Water:Propylene Glycol 68:22:10, nalmefene 350 mg/mL) it was “Completely Soluble,”. Besides, the Solubility observation entry is on record as “Completely Soluble,” in series [2] (Ethanol:Water:Propylene Glycol 82.5:12.5:5, nalmefene 200 mg/mL); “Completely Soluble,” in series [2] (Ethanol:Water:Propylene Glycol:Tween 80 70:25:4:1, nalmefene 350 mg/mL); “Completely Soluble,” in series [2] (Ethanol:Water:Tween 20 75:24.5:0.5, nalmefene 250 mg/mL).
In the case of `C=C1CC[C@@]2(O)[C@H]3Cc4ccc(O)c5c4[C@@]2(CCN3CC2CC2)[C@H]1O5` [Nalmefene hydrochloride], in series [3] (amine), the pKa1 was 8.38. The log P (as a rule, a log measure of how a compound divides between an organic and an aqueous phase) in series [3] is 2.66. For the same compound, in series [3] (freely soluble), the Solubility in water result is listed as “up to 130 mg/mL”. In addition, in series [3] (phenol), the pKa2 is reported as 10.00. For the same compound, the Solubility in chloroform entry in series [3] (slightly soluble) is given as “up to 0.13 mg/mL”.
As for `C=C1CC[C@@]2(O)[C@H]3Cc4ccc(O)c5c4[C@@]2(CCN3CC2CC2)[C@H]1O5` [Nalmefene HCl Monohydrate], the “Solubility of Nalmefene HCl Monohydrate” value in series [4] (Ethanol NF) is listed as “Partially”; in series [4] (Glycerol USP), “Partially”; in series [4] (Methanol) it was “Highly”; in series [4] (Propylene glycol USP), “Partially”; in series [4] (Water NF) it was “Moderately high”.
